According to patent publication US9801908B2, “Treatment for chitin-containing microorganisms” (BENCHMARK ANIMAL HEALTH LIMITED, priority 2013, dated 2017):
Read-outs that look alike come from different tables or passages of the source.

Experiments:
[1] = tested on: Atlantic salmon eyed eggs; conditions: in vivo
[2] = tested on: Saprolegnia hyphae/mycelium
Method: The plates were observed microscopically to confirm the attachment of the spores to the sesame seeds and the presence of the early growing mycelia. BA was added at 12 h post infection of the sesame seeds at the same concentrations mentioned above to all tested plates except controls. Plates were incubated further at 20° C. SAW was used as non-treated control and bronopol as positive control. Plates were inspected microscopically after 24 h for advanced mycelial growth.

Saprolegnia sp. = conditions: 4 h once a day
Method: The experimental design was as described in experiment 1 with the same number of eggs per replicate (N=27±2) and the number of infected eggs introduced per replicate (3 per 27 eggs). The difference was that the eggs were exposed to higher BA concentrations (1, 2, 3, 4 g/L) for 4 h once a day over the course of the experiment which lasted for 14 days in total. After 4 h of treatment the flow of aquarium water was resumed. The same treatment was applied 24 h later and every day up to 14 days. The time between treatments was the same throughout the experiment. The number of dead eggs, presence or absence of infection and hatching rates were recorded over the duration of the experiment.
Infected dead eggs that were used as source of infection in the BA treated groups and the non-treated control were examined microscopically to observe the effect of BA treatment on the growing mycelia.

Saprolegnia spores [3] = experiment: Germination and colonization of Saprolegnia spores on sesame seeds; format: cell-based, Saprolegnia parasitica; parameters: key to grade of germination and colonization of Saprolegnia spores on sesame seeds: Grade 0: no germination no growing mycelia on the sesame seeds; Grade 1: germinating spores no growing mycelia on the sesame seeds; Grade 2: germinating spores very few growing mycelia on the sesame seeds; Grade 3: germinating spores profuse growing mycelia on the sesame seeds; conditions: for grade of germination and colonization of Saprolegnia spores on sesame seeds: 48 hours incubation
Method: BA was diluted to desired concentration in Sterilized Aquarium Water (SAW). […] Saprolegnia zoospores were produced according to the method described previously by Stueland et al. […] Sterilized aquarium water (SAW) was used as a non-treated control and bronopol (Pyceze Vet.® 500 g bronopol/L) was used as a positive control. Each BA concentration and controls were tested in triplicates and incubated at 20° C. 24 hours later, plates were examined microscopically.

Saprolegnia spores [4] = conditions: BA 0.5 g/L continuous, yolk sac fry, natural outbreak
Excerpt: The safety of continuous exposure of salmon fry to a low concentration of BA (0.5 g/L) was also investigated to understand what extent BA will protect Atlantic salmon fry from becoming infected by Saprolegnia spores during a natural outbreak of saprolegniosis in the aquarium.

[5] = tested on: Saprolegnia spores and zoosporangia
Method: At indicated time points BA was replaced with SAW. The ability of treated spores to germinate and colonize sesame seeds was recorded 24 h following the treatment removal. Treated zoosporangia were also examined for their ability to release spore. Spores and zoosporangia in SAW were used as a non-treated control. Results were confirmed with fluorescent microscopy using SYTO 9 dye (Invitrogen®) 5 mM solution in DMSO.

[6] = tested on: Saprolegnia spores (S. diclina VIO 2739, S. parasitica VIO 2741, aquarium water); conditions: BA 1-4 g/L, 4 hours/day, 14 days
Method: The ability of BA to protect dead eggs from becoming infected with Saprolegnia spores was investigated. The rationale is that dead eggs may be the first to get infected under natural conditions and act as a source of infection for live eggs. Combined treatment of BA and PA was also tested.
Five egg groups were used, each group divided equally into 3 smaller sub-groups. 25 live eggs plus 5 dead ones were placed in each of the sub-groups (90 eggs per group). […] In the groups, eggs were supplied with continuous slow water flow of 1 L/min. The aquarium water at the facilities of the Norwegian Veterinary Institute/Norwegian School of Veterinary Science contains Saprolegnia zoospores and was used as source of infection. […] Treatment with BA was carried out as follows. The water flow was stopped and each group, except the non-treated control group, was treated with BA at concentrations of 1, 2, 3, and 4 g/L. The treatment period was 4 hours/day after which water flow was resumed. Dead eggs were inspected daily over 14 days for their colonization with Saprolegnia spores and the presence of growing hypha. Number of dead eggs per group and hatching rates were recorded.

[7] = treated 96 h in BA, then 24 h in SAW

OB(O)O [boric acid]
production and release of zoospores from young zoosporangia (Saprolegnia zoosporangia; 1 g/L BA, 12 and 24 h): interferes with the production and subsequent release of zoospores | sign observed in zoosporangia after treatment (Saprolegnia zoosporangia; 1 g/L BA, 12 and 24 h): Vacuolation of the entire of zoosporangia | spore production and release from zoosporangia (FIG. 2 b2) (Saprolegnia zoosporangia; 24 hours exposure to boric acid): absence of spore production and release | impact on hatchability and viability of eggs or fry [1]: no negative impact | hyphael growth grade ([2]; BA 0.5 g/L and below): grade 1 | mycelia growth ([2]; BA above 0.5 g/L): no further growth | hyphal attachment between infected dead and live eggs (Saprolegnia sp.; BA 1, 2, 3 or 4 g/L, 14 days): No hyphal attachment | mycelium on dead eggs used as source of infection (Saprolegnia sp.; all treated groups, BA 1-4 g/L): scanty attachment of mycelium | grade of germination and colonization of Saprolegnia spores on sesame seeds (Saprolegnia spores [3]; "boric acid g/L" (concentration not given)): Grade 0 | germination of inoculated Saprolegnia spores (Saprolegnia spores [3]; BA 1 g/L and above): did not germinate | germination and colonization of sesame seeds by Saprolegnia spores (Saprolegnia spores [3]; BA below 0.2 g/L): germinated and colonized sesame seeds | growth rate compared to the non-treated control (Saprolegnia spores [3]; BA below 0.2 g/L): slow | grade of germination and colonization of Saprolegnia spores on sesame seeds (Saprolegnia spores [3]; boric acid 0.2-0.4 g/L): Grade 2 | grade of germination and colonization of Saprolegnia spores on sesame seeds (Saprolegnia spores [3]; boric acid 0.5-0.9 g/L): Grade 1 | grade of germination and colonization of Saprolegnia spores on sesame seeds (Saprolegnia spores [3]; boric acid <0.2 g/L): Grade 3 | fry mortality rates compared to non-treated control (Saprolegnia spores [4]): Significant reduction | spore release of zoosporangia 24 h after exposure terminated ([5]; BA 1 g/L for 12 h): showed spore release | spore release of zoosporangia 24 h after exposure terminated ([5]; BA 1 g/L for 24 h): showed spore release | spore release of zoosporangia after exposure terminated ([5]; BA 1 g/L for 72 h): no spore release | spore release of zoosporangia after exposure terminated ([5]; BA 1 g/L for 96 h): no spore release | colonization of seeds (FIG. 3c-1) ([5]; treated 24 h with BA, then 24 h in SAW): Thin hyphae can be seen projecting out from seeds | appearance of zoosporangium (FIG. 3d-2) [5, 7]: condensed staining and a thin wall | colonization of seeds (FIG. 3d) [5, 7]: no colonization on seeds | attachment between dead and live eggs [6]: no attachment | hyphal growth on dead eggs [6]: No hyphal growth

O=[N+]([O-])C(Br)(CO)CO [bronopol, reference compound]
mortality of eggs ([1]; Atlantic salmon, 2 h): 100% | grade of germination and colonization of Saprolegnia spores on sesame seeds (Saprolegnia spores [3]; positive control (Pyceze Vet. 500 g bronopol/L)): Grade 0
